According to paper PMC7253423, “Quassinoid analogs with enhanced efficacy for treatment of hematologic malignancies target the PI3Kγ isoform” (Communications Biology, 2020):
“And” between values parts separate entries of the source, which are not always exact repeats. Equal values may be shown once.

Key:
[1] = biological target: T1, JUP encoded protein (junction plakoglobin) (Homo sapiens, UniProt P14923); assay: Streptavidin pull-down and mass spectrometry; type: binding; conditions: Raji lysates, gene JUP
T1 construct: endogenous in cells; host or cells: Raji cells (lysate)
T1 sequence (P14923 whole entry): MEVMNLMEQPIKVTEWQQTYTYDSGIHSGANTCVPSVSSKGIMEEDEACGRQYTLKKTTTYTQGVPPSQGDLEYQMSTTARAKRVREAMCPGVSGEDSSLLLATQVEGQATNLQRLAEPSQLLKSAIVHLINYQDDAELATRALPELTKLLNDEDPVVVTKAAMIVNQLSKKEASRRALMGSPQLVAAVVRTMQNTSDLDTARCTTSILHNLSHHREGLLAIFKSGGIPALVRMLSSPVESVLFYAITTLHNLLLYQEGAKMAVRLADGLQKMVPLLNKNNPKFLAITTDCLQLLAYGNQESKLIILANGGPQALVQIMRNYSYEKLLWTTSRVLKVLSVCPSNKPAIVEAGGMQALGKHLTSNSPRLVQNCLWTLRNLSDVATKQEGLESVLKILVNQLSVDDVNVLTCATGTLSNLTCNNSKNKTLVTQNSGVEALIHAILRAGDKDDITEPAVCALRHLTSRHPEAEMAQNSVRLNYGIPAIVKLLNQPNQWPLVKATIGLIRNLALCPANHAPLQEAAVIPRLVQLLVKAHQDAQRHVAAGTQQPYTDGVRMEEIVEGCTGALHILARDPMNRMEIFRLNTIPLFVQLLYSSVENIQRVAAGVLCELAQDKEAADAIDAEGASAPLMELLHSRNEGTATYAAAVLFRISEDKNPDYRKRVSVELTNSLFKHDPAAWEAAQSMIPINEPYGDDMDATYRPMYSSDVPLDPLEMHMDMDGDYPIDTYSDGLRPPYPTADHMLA
Protocol: (§1) Two hundred million Raji cells were harvested and lysed with RIPA buffer [1% Nonidet P-40 (NP-40), 10 mM Tris (pH8.0), 2 mM EDTA, 150 mM NaCl, supplemented with protease inhibitors (1 mM phenylmethylsulphonyl fluoride (PMSF), 1 μg/ml each Aprotinin, Pepstatin, and Leupeptin)]. Twenty milligram lysates were combined with magnetic Streptavidin beads as well as biotin-conjugated compounds 51046, 51048, or 51052, respectively. The complexes were incubated overnight with rotation at 4 °C. The immunoprecipitated samples were washed with RIPA three times and resolved on an SDS-PAGE gel.
(§2) The following Mass Spectrometry proteomics resources and services are provided by the Quantitative Proteomics Resource Core at School of Medicine at the University of Pennsylvania. Briefly, the peptides were extracted from the gel band and analyzed with an Orbitrap Fusion (Thermo Fisher Scientific, San Jose, CA, USA) attached to an EasyLC 1000 system (Thermo Fisher Scientific, San Jose, CA, USA) at 400 nL/min. The raw MS data were processed using MaxQuant (Version 1.5.3.30)[61], and searched with the UniProt human database. Then the target-decoy approach was used to filter the search results, in which the false discovery rate was less than 1% at the peptide and protein level.

[2] = biological target: T2, PIK3C2B encoded protein (PI3KC2β) (Homo sapiens, UniProt O00750); assay: Streptavidin pull-down and mass spectrometry; type: binding; conditions: Raji lysates, gene PIK3C2B
T2 construct: endogenous in cells; host or cells: Raji cells (lysate)
T2 sequence (O00750 whole entry): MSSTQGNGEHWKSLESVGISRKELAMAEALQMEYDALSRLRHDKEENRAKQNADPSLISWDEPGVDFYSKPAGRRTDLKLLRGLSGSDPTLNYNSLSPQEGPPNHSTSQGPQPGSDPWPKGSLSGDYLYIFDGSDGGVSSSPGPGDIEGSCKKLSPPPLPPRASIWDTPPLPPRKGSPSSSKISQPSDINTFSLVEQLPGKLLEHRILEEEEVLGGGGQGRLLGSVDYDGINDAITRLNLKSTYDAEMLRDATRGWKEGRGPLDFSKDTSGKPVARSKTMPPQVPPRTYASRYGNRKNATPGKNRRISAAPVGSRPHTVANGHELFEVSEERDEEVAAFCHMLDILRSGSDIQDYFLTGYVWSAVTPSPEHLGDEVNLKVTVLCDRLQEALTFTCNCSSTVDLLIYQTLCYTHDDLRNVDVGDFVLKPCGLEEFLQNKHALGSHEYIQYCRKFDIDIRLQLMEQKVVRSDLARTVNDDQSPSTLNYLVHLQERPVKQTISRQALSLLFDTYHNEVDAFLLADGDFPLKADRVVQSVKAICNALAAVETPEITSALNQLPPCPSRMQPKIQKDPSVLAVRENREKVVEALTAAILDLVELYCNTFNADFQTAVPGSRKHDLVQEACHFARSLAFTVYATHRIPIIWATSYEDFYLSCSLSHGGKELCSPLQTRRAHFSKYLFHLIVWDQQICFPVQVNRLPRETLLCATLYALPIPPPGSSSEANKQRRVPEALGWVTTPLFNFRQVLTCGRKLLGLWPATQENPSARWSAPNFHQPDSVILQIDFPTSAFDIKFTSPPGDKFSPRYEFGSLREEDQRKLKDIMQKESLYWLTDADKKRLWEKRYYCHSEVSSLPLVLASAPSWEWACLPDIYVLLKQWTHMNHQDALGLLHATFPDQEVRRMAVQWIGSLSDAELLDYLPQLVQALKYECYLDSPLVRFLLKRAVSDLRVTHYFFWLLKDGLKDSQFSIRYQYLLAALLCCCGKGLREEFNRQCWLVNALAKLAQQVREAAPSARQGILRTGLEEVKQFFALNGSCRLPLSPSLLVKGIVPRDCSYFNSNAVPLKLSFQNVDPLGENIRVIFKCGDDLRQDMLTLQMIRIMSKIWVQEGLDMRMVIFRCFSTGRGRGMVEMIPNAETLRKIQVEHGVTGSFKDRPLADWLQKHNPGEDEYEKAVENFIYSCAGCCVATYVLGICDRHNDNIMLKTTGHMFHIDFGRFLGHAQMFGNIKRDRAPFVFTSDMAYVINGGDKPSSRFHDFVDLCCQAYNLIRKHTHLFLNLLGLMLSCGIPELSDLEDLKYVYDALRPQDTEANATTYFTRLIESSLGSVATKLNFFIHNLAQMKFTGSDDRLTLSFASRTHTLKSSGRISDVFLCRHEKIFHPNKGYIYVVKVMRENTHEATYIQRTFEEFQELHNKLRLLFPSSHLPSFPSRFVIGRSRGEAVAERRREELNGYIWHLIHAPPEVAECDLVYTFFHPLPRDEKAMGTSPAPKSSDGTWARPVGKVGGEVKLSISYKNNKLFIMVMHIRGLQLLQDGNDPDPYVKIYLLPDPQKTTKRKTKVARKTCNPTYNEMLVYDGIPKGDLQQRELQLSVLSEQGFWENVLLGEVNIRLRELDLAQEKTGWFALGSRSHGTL
Protocol: as §1, §2

[3] = biological target: T3, GAPDH (Homo sapiens, UniProt P04406); assay: Competitive binding pull-down assay in SU-DHL-4 cell lysates, western blot; conditions: SU-DHL-4 lysates
T3 construct: endogenous in cells; host or cells: SU-DHL-4 cells (lysate)
T3 sequence (P04406 whole entry): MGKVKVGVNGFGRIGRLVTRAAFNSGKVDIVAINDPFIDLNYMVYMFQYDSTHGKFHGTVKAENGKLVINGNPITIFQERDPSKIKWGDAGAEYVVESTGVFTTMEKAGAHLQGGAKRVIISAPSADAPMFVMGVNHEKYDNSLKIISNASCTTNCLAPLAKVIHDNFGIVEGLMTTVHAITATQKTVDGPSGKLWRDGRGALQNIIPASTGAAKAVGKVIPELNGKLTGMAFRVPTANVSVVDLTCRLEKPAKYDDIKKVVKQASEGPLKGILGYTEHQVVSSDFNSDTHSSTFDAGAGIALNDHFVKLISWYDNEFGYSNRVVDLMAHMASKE
Protocol: (§3) Thirty microgram of purified GST-tagged proteins were pre-cleared with Dynabeads M-280 Streptavidin (Invitrogen, Carlsbad, CA, USA). […] The complexes were harvested and washed with PBS. The collected beads were mixed with SDS loading buffer for further analysis.
(§4) Western blot analyses were performed as previously described. Briefly, total cell lysates were separated by SDS-PAGE gel and transferred to nitrocellulose membrane. The membranes were blocked with 5% non-fat milk, probed with specific antibodies, and visualized using the Odyssey scanner (LiCor Inc., Lincoln, NE).

[4] = biological target: T4, AKT1 (Homo sapiens, UniProt P31749); assay: as above; conditions: SU-DHL-4 lysates
T4 construct: endogenous in cells; host or cells: SU-DHL-4 cells (lysate)
T4 sequence (P31749 whole entry): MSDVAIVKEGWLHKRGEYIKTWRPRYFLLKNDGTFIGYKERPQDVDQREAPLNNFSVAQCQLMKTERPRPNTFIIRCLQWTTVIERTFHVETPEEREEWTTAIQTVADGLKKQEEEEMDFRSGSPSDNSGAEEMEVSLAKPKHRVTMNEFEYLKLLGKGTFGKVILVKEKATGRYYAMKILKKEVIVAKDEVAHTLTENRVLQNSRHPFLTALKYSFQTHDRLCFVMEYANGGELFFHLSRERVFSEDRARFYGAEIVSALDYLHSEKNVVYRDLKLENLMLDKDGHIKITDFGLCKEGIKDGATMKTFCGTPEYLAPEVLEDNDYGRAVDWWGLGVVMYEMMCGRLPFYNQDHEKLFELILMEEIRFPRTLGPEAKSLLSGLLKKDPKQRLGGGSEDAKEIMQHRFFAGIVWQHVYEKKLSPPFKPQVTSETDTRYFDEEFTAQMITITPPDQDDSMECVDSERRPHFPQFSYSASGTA
Protocol: as §3, §4

[5] = biological target: T5, PI3Kγ (Homo sapiens, UniProt P48736); assay: as above; conditions: SU-DHL-4 lysates, biotin derivative alone
T5 construct: endogenous in cells; host or cells: SU-DHL-4 cells (lysate)
T5 sequence (P48736 whole entry): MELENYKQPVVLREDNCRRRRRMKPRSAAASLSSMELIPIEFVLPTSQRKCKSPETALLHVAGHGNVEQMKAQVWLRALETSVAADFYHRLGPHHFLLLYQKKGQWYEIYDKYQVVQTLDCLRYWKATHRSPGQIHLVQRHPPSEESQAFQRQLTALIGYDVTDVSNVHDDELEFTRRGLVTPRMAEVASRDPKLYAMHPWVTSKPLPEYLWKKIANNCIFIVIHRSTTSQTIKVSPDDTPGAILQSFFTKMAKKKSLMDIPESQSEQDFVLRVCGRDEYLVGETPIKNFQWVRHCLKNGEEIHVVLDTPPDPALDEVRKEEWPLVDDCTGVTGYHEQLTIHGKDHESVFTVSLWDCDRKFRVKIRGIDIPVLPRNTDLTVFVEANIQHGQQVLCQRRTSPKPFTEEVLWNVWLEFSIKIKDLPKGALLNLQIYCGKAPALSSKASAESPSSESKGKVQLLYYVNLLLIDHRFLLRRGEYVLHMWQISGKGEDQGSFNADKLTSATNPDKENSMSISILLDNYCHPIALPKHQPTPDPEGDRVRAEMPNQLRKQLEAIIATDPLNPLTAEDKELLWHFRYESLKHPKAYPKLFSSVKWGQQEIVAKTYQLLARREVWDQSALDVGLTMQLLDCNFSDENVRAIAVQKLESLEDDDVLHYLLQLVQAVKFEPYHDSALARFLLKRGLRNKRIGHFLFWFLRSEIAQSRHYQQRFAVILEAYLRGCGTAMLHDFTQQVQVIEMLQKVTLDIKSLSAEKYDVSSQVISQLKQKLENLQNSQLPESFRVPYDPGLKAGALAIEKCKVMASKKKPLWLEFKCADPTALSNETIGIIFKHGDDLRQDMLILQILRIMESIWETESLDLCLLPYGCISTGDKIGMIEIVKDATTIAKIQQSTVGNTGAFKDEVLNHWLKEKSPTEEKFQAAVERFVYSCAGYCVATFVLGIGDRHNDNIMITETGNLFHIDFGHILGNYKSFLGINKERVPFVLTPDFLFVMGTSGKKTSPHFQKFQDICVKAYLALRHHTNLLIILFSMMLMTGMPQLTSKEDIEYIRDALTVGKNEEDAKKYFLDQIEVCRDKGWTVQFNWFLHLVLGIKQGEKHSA
Protocol: as §3, §4

[6] = biological target: T6, GST-tagged PI3Kγ protein (Homo sapiens, UniProt P48736); assay: In vitro pull-down assay with purified protein; type: binding; conditions: 0, 300 μM, or 500 μM compound, Dynabeads M-280 Streptavidin
T6 construct: made in house; host or cells: E. coli BL21 (DE3)
T6 sequence (P48736 whole entry): as above
From the text: PIK3CG cDNA (Plasmid #20574) was purchased from Addgene and cloned into a pGEX-6P-1 vector (GE Healthcare, Madison, WI, USA) with SalI and NotI (NEB, USA). This GST-tagged PIK3CG plasmid was transformed into E. coli BL21 (DE3)-competent cells (Life Technologies, Carlsbad, CA, USA) for in vitro expression according to Molecular Cloning (Third Edition).
as §3

[7] = biological target: T7, PIK3CG encoded protein (PI3Kγ) (Homo sapiens, UniProt P48736); assay: Streptavidin pull-down and mass spectrometry; type: binding; conditions: Raji lysates, gene PIK3CG
T7 construct: endogenous in cells; host or cells: Raji cells (lysate)
T7 sequence (P48736 whole entry): as above
Protocol: as §1, §2

[8] = biological target: T8, TP73 encoded protein (P73) (Homo sapiens, UniProt O15350); assay: Streptavidin pull-down and mass spectrometry; type: binding; conditions: Raji lysates, gene TP73
T8 construct: endogenous in cells; host or cells: Raji cells (lysate)
T8 sequence (O15350 whole entry): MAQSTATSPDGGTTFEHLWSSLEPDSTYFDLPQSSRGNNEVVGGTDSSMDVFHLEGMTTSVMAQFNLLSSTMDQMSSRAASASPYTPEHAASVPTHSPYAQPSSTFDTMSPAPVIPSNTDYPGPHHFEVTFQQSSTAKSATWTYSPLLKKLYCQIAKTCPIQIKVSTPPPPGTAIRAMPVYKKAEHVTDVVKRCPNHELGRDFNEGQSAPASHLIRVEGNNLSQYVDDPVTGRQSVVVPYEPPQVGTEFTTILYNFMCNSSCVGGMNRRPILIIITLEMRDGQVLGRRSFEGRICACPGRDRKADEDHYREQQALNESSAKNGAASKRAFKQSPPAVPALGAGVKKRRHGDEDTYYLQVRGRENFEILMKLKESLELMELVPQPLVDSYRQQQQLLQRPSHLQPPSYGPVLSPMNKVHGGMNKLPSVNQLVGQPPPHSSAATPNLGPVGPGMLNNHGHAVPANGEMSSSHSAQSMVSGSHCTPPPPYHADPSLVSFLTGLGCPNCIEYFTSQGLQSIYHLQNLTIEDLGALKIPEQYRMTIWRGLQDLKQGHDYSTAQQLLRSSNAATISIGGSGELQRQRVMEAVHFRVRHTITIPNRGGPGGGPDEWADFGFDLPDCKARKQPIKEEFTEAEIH
Protocol: as §1, §2

[9] = test system: Raji cells; assay: Western blot of PI3K/AKT signaling proteins; type: cell-based, human; conditions: Raji, 0, 50 nM, 100 nM; 0, 12 h, 24 h
Protocol: as §4

[10] = Cytotoxicity, cell viability assay in normal cells; type: cell-based, human; conditions: human, relative cell viability (Fig 6a), replicates
From the text: (§5) Human peripheral blood mononuclear cells (PBMCs), normal T-cells and B-cells were provided by the University of Pennsylvania Human Immunology Core (HIC), and Patient-derived xenografts (PDXs) were obtained from Fox Chase Cancer Center (FCCC). These samples were from different unidentified and healthy donors with written, informed consent. All the procedures were approved by the Institutional Review Board (IRB) and conducted according to the declarations of Helsinki protocols.
(§6) 5000 cells as indicated were cultured in 96-well plate with 100 μl of media. […] After treatment, the cells were incubated with 100 μl buffer for 10 min at room temperature following the instructions of CellTiter-Glo kit (Promega, Madison, WI). Luminescence was detected using a multi-mode reader Cytation 5 (BioTek, Winooski, VT). […] Two independent experiments done in duplicates were performed.

[11] = test system: MOLM14 cells; assay: Cell viability assay (CellTiter-Glo luminescence); type: cell-based; conditions: Homo sapiens
Protocol: as §6

[12] = test system: SU-DHL-4 cells; assay: Cell viability assay (CellTiter-Glo luminescence); type: cell-based, human; conditions: Homo sapiens, SU-DHL-4, 144 h
Protocol: as §6

[13] = test system: Raji cells; assay: Cell viability assay (CellTiter-Glo luminescence); type: cell-based, human; conditions: Homo sapiens
Protocol: as §6

[14] = test system: MOLM14 xenografts; assay: mRNA expression in xenograft tumors in vivo; parameters: species or system NOD/SCID mice; conditions: xenograft tumors of treated mice
Protocol: Real-time PCR experiments were performed as previously described. The experiments were performed in triplicate.
(§7) Six-week-old male NOD.CB17-Prkdc^scid/J (NOD/SCID) mice (Jackson Labs, Bar Harbor, ME, USA) were used as the human-in-mouse xeno-transplantation model. MOLM14 cells (1 × 10^7 cells) were injected into the subcutaneous space on the left flank of the mice. […] Body weight and tumor size were monitored before every injection. After treatment for 2 weeks, the mice were euthanized by CO2 inhalation and the tumors were carefully excised. The tumor volume (mm^3) was measured and calculated using the formula (a × b × b)/2 (a, the largest diameter of two measurements; b, the smallest diameter of two measurements).

[15] = Cytotoxicity, cell viability assay in normal cells; type: cell-based; conditions: human, replicates
From the text: as §5, §6

[16] = test system: hematologic malignancies derived cell lines; assay: Cell viability assay, panel of hematologic malignancy derived cell lines; type: cell-based, human; conditions: 100 nM, 72 h, lymphoma, leukemia and multiple myeloma cell lines (13 cell lines for analogs)
Protocol: 5000 cells as indicated were cultured in 96-well plate with 100 μl of media. On the next day, Brusatol or associated analogs were added once to the cells without media change. After treatment, the cells were incubated with 100 μl buffer for 10 min at room temperature following the instructions of CellTiter-Glo kit (Promega, Madison, WI). Luminescence was detected using a multi-mode reader Cytation 5 (BioTek, Winooski, VT). […] Two independent experiments done in duplicates were performed.

[17] = test system: MOLM14 xenografts; assay: In vivo tumorigenic assay using xenografts, tumor size; parameters: species or system NOD/SCID mice; key to tumor size (Fig 5d&5e), individual mice: tumor volume in mm^3, calculated as (a × b × b)/2; conditions: for tumor size (Fig 5d&5e), individual mice: MOLM14 xenograft
Protocol: as §7

[18] = In vivo toxicity test, survival rate; parameters: species or system NOD/SCID mice
Protocol: The survival rate was recorded to monitor the tolerance of the compounds in these mice.

[19] = relative cell viability (Fig 6b)
[20] = relative cell viability (Fig 6c)

## COC(=O)C12OCC34C(CC5C(C)=C(OC(=O)CCCCC6SCC7NC(=O)NC76)C(=O)CC5(C)C3C(O)C1O)OC(=O)C(OC(=O)C=C(C)C)C24 (centres unmarked) [compound 51048]
[1]
  Score (sum of the ion scores of all peptides identified): 11.324
[2]
  Score (sum of the ion scores of all peptides identified): 5.9631
[3]
  GAPDH pulled down: little or no detectable levels
[4]
  AKT1 pulled down: little or no detectable levels
[5]
  binding activity with PI3Kγ: relatively strong

## COC(=O)C12OCC34C(CC5C(C)=C(OC(=O)CCCCCNC(=O)CCCCC6SCC7NC(=O)NC76)C(=O)CC5(C)C3C(O)C1O)OC(=O)C(OC(=O)C=C(C)C)C24 (centres unmarked) [compound 51052]
[6]
  association with GST-tagged PI3Kγ: formed a complex
[7]
  Score (sum of the ion scores of all peptides identified): 6.132
[8]
  Score (sum of the ion scores of all peptides identified): 6.0132

## COC(=O)C12OCC34C(CC5C(C)=C(OC(=O)CC(C)N)C(=O)CC5(C)C3C(O)C1O)OC(=O)C(OC(=O)C=C(C)C)C24 (centres unmarked) [#26]
[9]
  suppression of AKT1, GSK3, and mTOR levels: largely similar to Brusatol
[10]
  viability at 0.000244141 μM: 103%
  viability at 0.00390625 μM: 85%
  viability at 0.015625 μM: 83.1%
  viability at 0.0625 μM: 80.7%
  viability at 1 μM: 61.8%
[11]; MOLM-14, read-out: relative cell viability (Fig 6e), replicates, MOLM14, Con. 0.0390625 μM, fraction of 0 μM control
  viability at 0.0390625 µM: 12.5%
[11]; MOLM-14, read-out: relative cell viability (Fig 6e), replicates, MOLM14, Con. 0.15625 μM, fraction of 0 μM control
  viability at 0.15625 µM: 7.37%
[11]; MOLM-14, read-out: relative cell viability (Fig 6e), replicates, MOLM14, Con. 0.625 μM, fraction of 0 μM control
  viability at 0.625 µM: 5.55%
[11]; MOLM-14, read-out: relative cell viability (Fig 6e), replicates, MOLM14, Con. 10 μM, fraction of 0 μM control
  viability at 10 µM: 4.05%
[12]; read-out: relative cell viability (Fig 6d), replicates, SU-DHL-4, Con. 0.00244141 μM, fraction of 0 μM control
  viability at 0.00244141 µM: 125%
[12]; read-out: relative cell viability (Fig 6d), replicates, SU-DHL-4, Con. 0.0390625 μM, fraction of 0 μM control
  viability at 0.0390625 µM: 36.6%
[12]; read-out: relative cell viability (Fig 6d), replicates, SU-DHL-4, Con. 0.15625 μM, fraction of 0 μM control
  viability at 0.15625 µM: 18.6%
[12]; read-out: relative cell viability (Fig 6d), replicates, SU-DHL-4, Con. 0.625 μM, fraction of 0 μM control
  viability at 0.625 µM: 9.14%
[12]; read-out: relative cell viability (Fig 6d), replicates, SU-DHL-4, Con. 10 μM, fraction of 0 μM control
  viability at 10 µM: 6.62%
[13]; analogs, 72 h, Fig. 5c, read-out: IC50
  IC50: 37.6 nM
[13]; read-out: relative cell viability (Fig 6f), replicates, Raji, Con. 0.00244141 μM, fraction of 0 μM control
  viability at 0.00244141 µM: 105%
[13]; read-out: relative cell viability (Fig 6f), replicates, Raji, Con. 0.0390625 μM, fraction of 0 μM control
  viability at 0.0390625 µM: 35%
[13]; read-out: relative cell viability (Fig 6f), replicates, Raji, Con. 0.15625 μM, fraction of 0 μM control
  viability at 0.15625 µM: 16.4%
[13]; read-out: relative cell viability (Fig 6f), replicates, Raji, Con. 0.625 μM, fraction of 0 μM control
  viability at 0.625 µM: 7.06%
[13]; read-out: relative cell viability (Fig 6f), replicates, Raji, Con. 10 μM, fraction of 0 μM control
  viability at 10 µM: 4.98%
[14]
  PIK3CG and GSK3B mRNA expression in vivo: inhibited
[15]; [19]
  viability at 0.000244141 μM: 96.2%
  viability at 0.00390625 μM: 86%
  viability at 0.015625 μM: 81.6%
  viability at 0.0625 μM: 74.5%
  viability at 1 μM: 82.6%
[15]; [20]
  viability at 0.000244141 μM: 111%
  viability at 0.00390625 μM: 112%
  viability at 0.015625 μM: 115%
  viability at 1 μM: 93.8%
[16]
  inhibition of cell viability in panel of cell lines: significantly inhibit
[17]; 2 mg/kg intraperitoneally three times per week, 2 weeks, vs PBS control
  tumor size, inhibitory response: strong and rapid inhibitory response
[17]; 0d
  tumor size (Fig 5d&5e), individual mice: 50.8503 and 81.4689 and 79.571 and 83.4481 and 51.3256 and 101.436
[17]; 2d
  tumor size (Fig 5d&5e), individual mice: 106.443 and 103.871 and 87.5139 and 68.1449 and 136.175 and 126.294
[17]; 4d
  tumor size (Fig 5d&5e), individual mice: 67.7106 and 172.977 and 64.3385 and 73.9417 and 166.255 and 100.157
[17]; 6d
  tumor size (Fig 5d&5e), individual mice: 174.013 and 301.003 and 181.944 and 99.2269 and 96.1716 and 48.5716
[17]; 8d
  tumor size (Fig 5d&5e), individual mice: 185.825 and 124.577 and 101.125 and 181.307 and 468.229 and 312.088
[17]; 10d
  tumor size (Fig 5d&5e), individual mice: 259.199 and 230.595 and 161.819 and 478.339 and 646.864 and 395.944
[17]; 12d
  tumor size (Fig 5d&5e), individual mice: 359.944 and 415.708 and 136.428 and 853.399 and 887.802 and 629.337
[18]; 10 mg/kg intraperitoneally every other day, monitored 24 days, 4 mice per group
  toxicity in vivo (survival): did not show any obvious signs of toxicity
[18]; 10mg/kg, Days Post-treatment 24
  survival event status per mouse (Fig 6i; 1 = event/death, 0 = censored): 0
